Test results taken from BindingDB's records for patent US20230399314 (Wuhan Humanwell Innovative Drug Research and Development …, 2023).

Biological target: 5'-nucleotidase (Homo sapiens, UniProt P21589)
Test: In Vitro Inhibitory Activity of Compound to Recombinant Human CD73 Enzyme
Protocol: Human-CD73 (Novoprotein; C446) was diluted with Tris-MgCl2 buffer to form a stock solution (3×), which was placed in a 96-well plate according to 20 μL/well to obtain a final concentration of 0.1 μg/mL. The compound was diluted with Tris-MgCl2 buffer to form a stock solution (3×) of an appropriate concentration gradient, the compound solution was added to the above 96-well plate according to 20 μL/well and uniformly mixed with the Human-CD73 solution, and the mixture was incubated at the room temperature for 30 min. Meanwhile, a positive reference group (without the compound) and a negative reference group (without CD73) were set. AMP (Sigma; A1752-5G) was diluted with Tris-MgCl2 buffer to form a stock solution (3×), which was added to the above 96-well plate according to 20 μL/well to obtain a final concentration of 100 μM, and the mixture was uniformly mixed and incubated at 37° C. for 60 min; ATP (Sigma; A7699-1G) was diluted with Tris-MgCl2 buffer to form a stock solution (7×), which was added to the above 96-well plate according to 10 μL/well to obtain a final concentration of 100 μM, and the mixture was uniformly mixed, incubated for 5 min, and tested by using an ATP-GLO kit (Promega; G7573).

Sequence of 5'-nucleotidase (P21589 whole entry): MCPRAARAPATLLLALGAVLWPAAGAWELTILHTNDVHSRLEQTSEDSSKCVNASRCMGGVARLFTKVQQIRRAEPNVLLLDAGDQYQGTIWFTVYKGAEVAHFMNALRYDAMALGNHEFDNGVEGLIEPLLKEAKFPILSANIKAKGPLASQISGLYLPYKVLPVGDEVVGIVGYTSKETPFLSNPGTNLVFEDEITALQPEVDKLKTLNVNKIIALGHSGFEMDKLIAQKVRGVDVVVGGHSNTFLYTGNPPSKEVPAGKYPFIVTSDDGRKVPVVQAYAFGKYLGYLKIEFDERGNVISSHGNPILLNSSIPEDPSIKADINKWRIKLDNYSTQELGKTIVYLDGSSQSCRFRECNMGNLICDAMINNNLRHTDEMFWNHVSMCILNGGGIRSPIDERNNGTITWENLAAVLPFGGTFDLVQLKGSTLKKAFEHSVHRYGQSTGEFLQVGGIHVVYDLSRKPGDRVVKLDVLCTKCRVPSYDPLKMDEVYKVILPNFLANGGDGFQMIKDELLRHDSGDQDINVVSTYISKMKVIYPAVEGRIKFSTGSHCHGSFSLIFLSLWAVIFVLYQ

IC50 | Structure (SMILES)
23.2 nM | O=c1[nH]cc(-c2cc([C@@H]3C[C@H]3C(F)(F)F)c(Cl)nn2)c(=O)[nH]1 (relative stereo) [US20230399314, Compound 2]
11.6 nM | O=c1[nH]cc(-c2cc([C@H]3C[C@@H]3C(F)(F)F)c(Cl)nn2)c(=O)[nH]1 [US20230399314, Compound 3]
4.59 nM | O=c1[nH]cc(-c2cc([C@H]3C[C@@H]3CF)c(Cl)nn2)c(=O)[nH]1 [US20230399314, Compound 9]
